According to US20050136020A1, “Silicone-free long-lasting shine hair care compositions” (priority 2003, published 2005):

Columns and labels:
[1] = Index of refraction; type: physicochemical
Procedure: Preferably, the hair care compositions of the present invention have PEG/PPG-8/3 Laurate. […] Refractive index impacts the overall clarity of the present composition. It is preferred to have an aqueous-based composition with a clear color for aesthetic appeal. The hair care compositions of the present invention have a Shine Index of at least 5 hours, preferably about 8 or more hours, and most preferably up to 18 hours or more, thereby providing for extended life shine. “Shine Index” as used herein is the length of time shine persists on treated hair, as evaluated in the test protocol described in Example 1.

[2] = Solubility and visual clarity of PEG/PPG-8/3 Laurate in water and oils; type: physicochemical
Procedure: Solubility is the ability of one substance to blend uniformly with another, e.g. solid in liquid or liquid in liquid. Clarity is determined visually. A turbidity meter may be used to measure clarity if the system is not absolutely clear. The solubility of PEG/PPG-8/3 Laurate is up to fifty percent (50%) in water. […] The solubility of PEG/PPG-8/3 Laurate is up to ten percent (10%) in sunflower oil and in castor oil. […] In soybean oil, it is clear at five percent (5%) and slightly hazy at ten percent (10%).

Substance: PEG/PPG-8/3 Laurate
- index of refraction [1]: about 1.456
- solubility in castor oil ([2]; in castor oil): ≤ 10%
- clarity (visual) in soybean oil at 5% ([2]; in soybean oil, five percent (5%)): clear
- clarity (visual) in soybean oil at 10% ([2]; in soybean oil, ten percent (10%)): slightly hazy
- clarity (visual) in sunflower and castor oil ([2]; in sunflower and castor oil, up to its solubility limit): clear and homogenous
- solubility in sunflower oil ([2]; in sunflower oil): ≤ 10%
- solubility in water ([2]; in water): ≤ 50%
- clarity (visual) in water ([2]; in water, at concentrations up to its solubility limit): clear and homogeneous
